Data from patent US5728684A, “Determination of prodrugs metabolizable by the liver and therapeutic use thereof” (priority 1994, dated 1998).
Entries after “also recorded” stand apart in the source; their conditions may differ. Where two headings read alike, the source gives them in different places.

What was measured:
[1] = cited from earlier work; for catabolism to the free base: followed by dehalogenation; for cytotoxicity limiting effective use as radiosensitizer: in vivo
IPdR oxidase = assay: Effect of inhibitors on the oxidation of IPdR to IUdR by liver homogenate; assay type: biochemical, rat; conditions: for product inhibition: at 50 mM; for IC50: liver homogenate, read-out: IC50 (concentration at 50% inhibition of the conversion of IPdR to IUdR)
Description: (§1) Rat hepatic tissue was washed with ice-cold 1.15% KCl and blotted dry. The tissue was then homogenized with a tissue homogenizer, in a volume of 1.15% KCl that was 3 times the tissue weight, to form a 25% (w/v) homogenate. The homogenate was then centrifuged at 10,000 g for 10 minutes at 4° C. The resulting supernatant was filtered through Miracloth (similar to cheese cloth) then dialyzed overnight against 50 mM Tris-HCl buffer pH 7.5 and stored at -80° C. before use. Rat hepatocytes were obtained by a perfusion technique then the cells were extracted with 10 mM phosphate buffer, pH 7.5, containing 1M KCl and dialyzed for 4 hours against 50 mM Tris-HCl buffer pH 7.5.
(§2) For the standard assay condition, the reaction mixture contained 50 mM Tris-HCl, pH 7.5, 1 mM EDTA, 180 μM of IPdR (or its analogs) and approximately 0.01 mg protein of 10,000 g supernatant of tissue homogenate in a final volume of 500 μl and the incubation was at 37° C. for 10 minutes unless specified otherwise. 300 μl of reaction mixture was removed at the end of incubation and mixed with 630 μl acetonitrile then agitated. The precipitated protein were removed by centrifugation and the supernatant was lyophilized to dryness. The samples were reconstituted to the original aliquot volume with the HPLC mobile phase buffer and analyzed on a Alltech RP-18 column. IPdR, IUdR and IU were detected at a UV absorption wavelength of 230 nm, and IPdR was also detected at a UV absorption wavelength of 335 nm. The mobile phase was 10% acetonitrile/90%mM ammonium acetate, pH 6.8 and the flow rate was 1 ml/minute. Standard curves of IPdR and IUdR were established from the integration value of known concentrations.

aldehyde oxidase [2] = conditions: cited from earlier work
hepatic aldehyde oxidase [3] = assay: Conversion of prodrugs to active compound in vivo
From the text: (§3) As most nucleosides and nucleoside bases include keto groups in their formula and many are structurally related to the structure of uracil, it is expected that bio-affecting compounds which are analogs of nucleosides and nucleoside bases are prime candidates for bio-affecting compounds for which prodrugs in accordance with the present invention can be designed, metabolizable by hepatic aldehyde oxidase into such compounds. Thus, in addition to uracil and uridine analogs, analogs of other nucleosides and nucleoside bases, such as cytidine, guanosine, 6-azauridine and 8-azaguanine analogs, may be used as the basis of the formation of prodrugs in accordance with the present invention. Examples of bio-affecting compounds in this category include ddG, DHPG, ACV, ddI, D4T and AZT.

aldehyde oxidase [4] = assay: Substrate specificity of the conversion of RPdR to RUdR; assay type: in vitro ADME, rat; conditions: for Conversion of RPdR to RUdR / Products of the reaction: substrate 180 μM; for Conversion of RPdR to RUdR: 2 to 4 separate experiments, in nmol/mg/min
Description: as §1, §2
(§4) Several 2-pyrimidinone deoxyribose analogs were examined for the conversion to their deoxyuridine counterparts. […] Nevertheless the relative Vmax for IPdR in the reaction at pH 7.5 and pH 9.5 is the same. […] The synthetic substrates for aldehyde oxidase appear to be better than its natural substrates, N^1 -methylnicotinamide and acetaldehyde, as judged by the potency of inhibition of N^1 -methylnicotinamide and acetaldehyde to the IPdR oxidation reaction (Table IV). The rate of reactivity of the liver enzyme with different IPdR analogs follows the order EPdR, IP, IPdR, 5-bromo-2-pyrimidinone deoxyribose (BPdR) and 5-methyl-2-pyrimidinone deoxyribose (MPdR) or 5-ethyl-2-pyrimidinone deoxyribose (EtPdR) (Table V). Electronegative substituents in the 5-position seemed to increase the substrate activity in this oxidation reaction.
Substrate specificity of the conversion of […]

BDF1 mice = assay: Toxicity of FU and FP in BDF1 mice; assay type: in vivo; conditions: for Death/Total: Day 1,2,3,4,5
Description: (§5) BDF1 mice were administered daily oral dosages of either 50, 75 or 100 mg/kg of FU or 100, 150 or 200 mg/kg of FP. The survival rates of each are presented in chart and graphic forms in Table VI and FIGS. 2 and 3.

[5] = Toxicity of FU and FP in BDF1 mice; assay type: in vivo; conditions: mouse, in vivo, po, daily, Day 1,2,3,4,5
Description: as §5

[6] = tested on: leukemia and colon cancer; assay: Therapeutic effectiveness of FP versus FU in leukemia and colon cancer; assay type: in vivo, mouse; conditions: oral FP
From the text: There are other occasions besides the treatment of liver-associated diseases when the administration of a prodrug will be preferred to the administration of the bio-affecting compound which is formed from such prodrugs. For example, many drugs are not orally administrable for any of a variety of reasons. Oral administration of a prodrug from which the active compound is released in the liver will avoid most of the disadvantages of oral administration of the active compound. Thus, for example, FU is a well-known anti-cancer drug which cannot be administered orally. FP is a prodrug which is metabolizabie by hepatic aldehyde oxidase to FU. FP may be given orally to a subject.
(§6) Mice were injected with 100,000 P388-R leukemia cells to induce a leukemia. These cells were resistant to Adriamycin. Daily treatments of 25 and 50 mg/kg FU and 50 and 100 mg/kg FP were given orally to these leukemic mice and the duration of survival was measured. The results are given in tabular and graphic form in Table VII and FIG. 4.
(§7) Mice were injected with colon 38 cells and were either not treated or treated with daily treatments of 25 and 50 mg/kg FU and 50 and 100 mg/kg FP were given orally to the mice and the change in tumor weight was measured over time.

P388-R leukemia cells = assay: Survival time of mice bearing P388-R leukemia cells; assay type: in vivo, mouse; conditions: for Cures/Total / ILS (increase in life span over controls): daily on Day 1,2,3,4,5
Description: as §6
Inoculum: 10^6 P388R cells into each mouse (i.p.)

colon 38 cells = assay: Colon 38 tumor weight in mice; assay type: in vivo, mouse; conditions: FU 25 and 50, FP 50 and 100 mg/kg daily oral
Description: as §7

hepatic aldehyde oxidase [7] = assay: Metabolism of prodrugs by hepatic aldehyde oxidase in vitro / in vivo; assay type: in vitro ADME
From the text: as §3

Transgenic mice = assay: Treatment of transgenic mice expressing SV40 large tumor antigen; assay type: in vivo, mouse
Description: Transgenic mice obtained according to the method of Sepulveda et al., Cancer Research 49:6108-6117 (1989) were administered beginning at nine weeks after birth in a female and male, wherein the treatment group received 100 mg/kg two times per day, once per week.

[8] = Michaelis constant / Vmax of 2-pyrimidinone deoxyribose analogs with the liver enzyme; assay type: biochemical, rat; conditions: rat, liver aldehyde oxidase
Description: as §1, §2, §4

[9] = tested on: metastatic prostate cancer; conditions: cited from earlier work

O=c1[nH]c(=O)n([C@H]2C[C@H](O)[C@@H](CO)O2)cc1Br [BUdR, 5-bromo-deoxyuridine]
catabolism to the free base [1]: rapid catabolism
cytotoxicity limiting effective use as radiosensitizer [1]: limited by their cytotoxicity

CCCCS [1-Butane thiol]
product inhibition (IPdR oxidase): Approximately 25%
IC50 (IPdR oxidase): > 50000 µM

N[C@@H](CS)C(=O)O [Cysteine]
inhibition of aldehyde oxidase activity (aldehyde oxidase [2]; at 5 mM): no significant inhibition
inhibition of aldehyde oxidase activity (aldehyde oxidase [2]; at 50 mM): potent inhibition
product inhibition (IPdR oxidase): Approximately 40%
IC50 (IPdR oxidase): > 50000 µM

Oc1ncc(F)cn1 [FP, 5-fluoro-2-pyrimidinone]
metabolism to FU by hepatic aldehyde oxidase in vivo (hepatic aldehyde oxidase [3]): metabolizable to FU
Conversion of RPdR to RUdR (aldehyde oxidase [4]): 20
Death/Total (BDF1 mice; 100 mg/kg p.o.): 5/5
Death/Total (BDF1 mice; 150 mg/kg p.o.): 4/5
Death/Total (BDF1 mice; 200 mg/kg p.o.): 0/5
toxicity of FP compared with FU (BDF1 mice; oral, even when higher dosages were administered): considerably less
LD50 [5]: 180 mg/kg
effectiveness of FP compared with FU [6]: essentially the same as FU
Cures/Total (P388-R leukemia cells; 50 mg/kg oral): 0/5
ILS (increase in life span over controls) (P388-R leukemia cells; 50 mg/kg oral): 0%
Cures/Total (P388-R leukemia cells; 100 mg/kg oral): 0/5
ILS (increase in life span over controls) (P388-R leukemia cells; 100 mg/kg oral): 30%
survival time using FP compared to FU (P388-R leukemia cells; FU 25 and 50, FP 50 and 100 mg/kg oral): as long using FP compared to FU
reduction in tumor size or reduction in its growth rate, FU versus FP (colon 38 cells): comparable between FU and FP
metabolism to FU by hepatic aldehyde oxidase in vitro (hepatic aldehyde oxidase [7]): metabolizable to FU
weight gain, male and female (Transgenic mice; after week 13): significantly decreased weight gain
body weight increase, female (Transgenic mice; female, 100 mg/kg two times per day, once per week): slower increase in body weight
survival, female (Transgenic mice; female, versus control, which died at week 16): lived longer; also recorded: survived the control rat
body weight increase, male (Transgenic mice; male, 100 mg/kg two times per day, once per week): slower increase in body weight
survival, male (Transgenic mice; male, inferred from slower body weight increase): longer survival than control

OO [Hydrogen peroxide]
IC50 (IPdR oxidase): 10000 µM

O=c1[nH]c(=O)n([C@H]2C[C@H](O)[C@@H](CO)O2)cc1I [IUdR, iodo-deoxyuridine]
catabolism to the free base [1]: rapid catabolism
cytotoxicity limiting effective use as radiosensitizer [1]: limited by their cytotoxicity
systemic toxicity limiting clinical usage ([1]; systemic use): limited its clinical usage

O[C@H](CS)[C@H](O)CS (racemic) [Dithiothreitol]
inhibition of aldehyde oxidase activity (aldehyde oxidase [2]; literature): could be inhibited
IC50 (IPdR oxidase): 100 µM

C#Cc1cnc(=O)n([C@H]2C[C@H](O)[C@@H](CO)O2)c1 [EPdR, 5-ethynyl-2-pyrimidinone-deoxyribose]
Km ([8]; pH 7.5): 77 µM
Km ([8]; pH 9.5): 46 µM
Conversion of RPdR to RUdR (aldehyde oxidase [4]): 20 ± 4

CC=O [Acetaldehyde]
inhibition of aldehyde oxidase activity (aldehyde oxidase [2]; literature): inhibited by acetaldehyde
IC50 (IPdR oxidase): 5000 µM

NO [Hydroxyl amine]
IC50 (IPdR oxidase): 1000 µM

CCc1cnc(=O)n([C@H]2C[C@H](O)[C@@H](CO)O2)c1 [EtPdR, 5-ethyl-2-pyrimidinone-deoxyribose]
Products of the reaction (aldehyde oxidase [4]): not detected
Conversion of RPdR to RUdR (aldehyde oxidase [4]): < 0.1

O=c1ncc(I)c[nH]1 [IP, 5-iodo-2-pyrimidinone]
substrate quality for aldehyde oxidase (aldehyde oxidase [4]; in words): excellent substrate
Conversion of RPdR to RUdR (aldehyde oxidase [4]): 18 ± 3

OCCS [Mercaptoethanol, 2-mercaptoethanol]
inhibition of aldehyde oxidase activity (aldehyde oxidase [2]; literature): could be inhibited
IC50 (IPdR oxidase): 1800 µM

O=c1[nH]cc(F)c(=O)[nH]1 [FU, 5-fluoro uracil, reference compound]
Death/Total (BDF1 mice; 50 mg/kg p.o.): 5/5
Death/Total (BDF1 mice; 75 mg/kg p.o.): 2/5
Death/Total (BDF1 mice; 100 mg/kg p.o.): 1/5
LD50 [5]: 70 mg/kg
Cures/Total (P388-R leukemia cells; 25 mg/kg oral): 0/5
ILS (increase in life span over controls) (P388-R leukemia cells; 25 mg/kg oral): 5%
Cures/Total (P388-R leukemia cells; 50 mg/kg oral): 0/5
ILS (increase in life span over controls) (P388-R leukemia cells; 50 mg/kg oral): 25%
reduction in tumor size or reduction in its growth rate, FU versus FP (colon 38 cells): comparable between FU and FP

Cc1ccc(C(=O)Nc2ccc(S(=O)(=O)O)c3cc(S(=O)(=O)O)cc(S(=O)(=O)O)c23)cc1NC(=O)c1cccc(NC(=O)Nc2cccc(C(=O)Nc3cc(C(=O)Nc4ccc(S(=O)(=O)O)c5cc(S(=O)(=O)O)cc(S(=O)(=O)O)c45)ccc3C)c2)c1 [suramin]
effectiveness of bolus dosages ([9]; bolus): significantly less effective
effective anti-cancer dosage relative to dosage resulting in paralysis ([9]; human trials, metastatic prostate cancer): very close to the dosage resulting in paralysis

C[n+]1cccc(C(N)=O)c1 [N^1 -methylnicotinamide]
conversion by hepatic aldehyde oxidase (aldehyde oxidase [2]; to N1-methyl-2-pyridone-5-carboxamide and N1-methyl-4-pyridone-3-carboxamide): converts N^1 -methylnicotinamide
IC50 (IPdR oxidase): 1000 µM

CCCC(C(=O)OCCN(CC)CC)(c1ccccc1)c1ccccc1 [SKF-525A]
IC50 (IPdR oxidase): 30 µM

O=c1ncc(Br)cn1[C@H]1C[C@H](O)[C@@H](CO)O1 [BPdR, 5-bromo-2-pyrimidinone-deoxyribose]
Conversion of RPdR to RUdR (aldehyde oxidase [4]): 7 ± 2

Cc1cnc(=O)n([C@H]2C[C@H](O)[C@@H](CO)O2)c1 [MPdR, 5-methyl-2-pyrimidinone-deoxyribose]
Products of the reaction (aldehyde oxidase [4]): not detected
Conversion of RPdR to RUdR (aldehyde oxidase [4]): < 0.1

NC(CO)(CO)CO [Tris buffer]
stimulation of aldehyde oxidase activity (aldehyde oxidase [2]; literature): stimulated by potassium ferricyanide and Tris buffer
